Measurements from article PMC10977726 (PLOS ONE, 2024).

Tests used:
[1] = target: T1, human IgG Fc (Homo sapiens, UniProt P01857); experiment: Phage competition ELISA for epitope mapping (various synthetic DCPs vs phage displaying one DCP); type: binding
T1 construct: Biotin-SP-ChromPure Human IgG, Fc fragment; purchased Jackson Immunoresearch Labs Inc. 009060008

[2] = 100% human serum, 0.2 mM DCP, 37°C, LC-MS, UV 220 nm peak area normalized to 0 h, three independent experiments

CC[C@H](C)[C@@H]1NC(=O)[C@H](CO)NC(=O)[C@H]([C@@H](C)CC)NC(=O)[C@H](CO)NC(=O)[C@H](CO)NC(=O)[C@@H]2CSSC[C@@H]3NC(=O)[C@H](CO)NC(=O)CNC(=O)[C@H]([C@@H](C)O)NC(=O)[C@H](CSSC[C@H](NC(=O)[C@@H](N)CCC(=O)O)C(=O)N[C@@H](CCCCN)C(=O)NCC(=O)N[C@@H](CCCCN)C(=O)NCC(=O)N[C@@H](C)C(=O)N[C@@H](CCCCN)C(=O)N2)NC(=O)[C@H](CSSC[C@@H](C(=O)O)NC(=O)[C@H](CCCCN)NC(=O)CNC(=O)[C@H](CO)NC(=O)[C@H](CCCNC(=N)N)NC3=O)NC(=O)[C@H](Cc2c[nH]cn2)NC(=O)[C@H](C)NC(=O)[C@H](CC(=O)O)NC(=O)[C@H](Cc2c[nH]cn2)NC1=O [Ig-CON-5]
inhibition of interaction between biotinylated hIgG Fc and phage displaying Ig-AMP-1 ([1]; Fig 4D): potently inhibited
inhibition of interaction between human IgG Fc and phage displaying Ig-CON-5 ([1]; Fig S15): potently inhibited
loss of peptides after 24 h [2]: 40–50%
